Laboratory results reported in patent US8426438B2, “Heterocyclic-fused pyrazolo[4,3-c]pyridin-3-one M1 receptor positive allosteric modulators” (Merck Sharp & Dohme Corp., priority 2009, dated 2013).
pEC50: −log10 of the molar value.

What follows are compounds tested against T1, acetylcholine muscarinic M1 receptor (CHOnfat/hM1 cells) (Homo sapiens, UniProt P11229) (assay: muscarinic FLIPR intracellular calcium assay for M1 positive allosteric modulator activity (acetylcholine EC20)). Conditions: 4 min preincubation, then EC20 acetylcholine (3 nM final), read-out: IP Value (inflection point).
T1 construct: expressed in transfected cells; host or cells: CHOnfat cells (CHO, Geneticin selection)
T1 sequence (P11229 1-460): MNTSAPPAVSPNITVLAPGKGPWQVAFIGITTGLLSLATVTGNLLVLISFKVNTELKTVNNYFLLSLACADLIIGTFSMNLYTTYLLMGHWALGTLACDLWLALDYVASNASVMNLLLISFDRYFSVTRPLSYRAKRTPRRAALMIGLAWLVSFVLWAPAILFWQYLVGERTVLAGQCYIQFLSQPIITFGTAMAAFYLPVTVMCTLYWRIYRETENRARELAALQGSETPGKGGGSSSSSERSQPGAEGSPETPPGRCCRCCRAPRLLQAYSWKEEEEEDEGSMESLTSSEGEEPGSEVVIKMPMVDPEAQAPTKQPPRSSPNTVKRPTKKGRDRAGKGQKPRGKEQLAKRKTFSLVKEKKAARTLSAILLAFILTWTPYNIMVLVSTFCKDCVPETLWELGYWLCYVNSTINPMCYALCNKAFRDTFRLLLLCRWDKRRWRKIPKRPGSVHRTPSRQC
Type: cell-based
Method: The assay studies the effect of one or several concentrations of test compounds on basal or acetylcholine-stimulated Ca^2+ levels using FLIPR.
Compounds are prepared and subjected to a preincubation period of 4 min. Thereafter, a single EC20 concentration of acetylcholine is added to each well (3 nM final). The intracellular Ca^2+ level of each sample is measured and compared to an acetylcholine control to determine any modulatory activity.
CHOnfat/hM1, hM2, hM3 or hM4 cells are plated 24 hr before the assay at a density of 18,000 cells/well (100 up in a 384 well plate. CHOnfat/hM1 and CHOnfat/hM3 Growth Medium: 90% DMEM (Hi Glucose); 10% HI FBS; 2 mM L-glutamine; 0.1 mM NEAA; Pen-Strep; and 1 mg/ml Geneticin, are added. For M2Gqi5CHOnfat and M4Gqi5CHOnfat cells, an additional 600 μg/ml hygrornycin is added.
384 well plate, 120 μL addition plate; 96-well Whatman 2 ml Uniplate Incubator, 37° C., 5% CO2; Skatron EMBLA-384 Plate Washer; Multimek Pipetting System; Genesis Freedom 200 System; Mosquito System; Temo Nanolitre Pipetting System; and FLIPR^384 Fluorometric Imaging Plate Reader System are used.
Assay Buffer: Hanks Balanced Salt Solution, with 20 mM Hepes, 2.5 mM Probenecid (Sigma P-8761) first dissolved in 1 N NaOH, 1% Bovine Serum Albumin (Sigma A-9647). Dye Loading Buffer: Assay Buffer plus 1% Fetal Bovine Serum and Fluo-4AM/Pluronic Acid Mixture. 2 mM Fluo-4AM ester stock in DMSO (Molecular Probes F-14202) Concentration of 2 μM in buffer for a final concentration of 1 μM in Assay. 20% Pluronic Acid Solution stock, with concentration of 0.04% in Buffer, 0.02% in Assay.
65 μL of 2 mM Fluo-4AM are mixed with 130 μL of 20% Pluronic Acid. The resulting solution and 650 μL FBS is added to the assay buffer for a total volume of 65 mL. Positive Controls: 4-Br-A23187: 10 mM in DMSO; final concentration 10 μM. Acetylcholine: 10 mM in water, working stock at both 20 μM and 30 μM in assay buffer, final concentration of 10 μM. This is used to check the maximum stimulation of the CHOK1/hM1 cells. 20 μM (2×) acetylcholine is added in the preincubation part of the assay, and the 30 μM (3×) stock is added in the second part. (EC20) Acetylcholine: 10 mM in water, working stock of 9 nM (3×), and final concentration in assay is 3 nM. This is used after the preincubation with test compounds. Addition of the EC20 Acetylcholine to each well with a test compound will ascertain any modulator activity. 24 wells contain 3 nM Acetylcholine alone as a control.
Compounds are titrated in 96-well plates (columns 2-11), 100% DMSO, started at a concentration of 15 mM (150× stock concentration), and 3-fold serial dilutions using Genesis Freedom200 System. Four 96-well plates are combined into a 384-well plate using Mosquito Nanolitre Pipetting System by transferring 1 μl of serial diluted compounds to each well, and 1 mM acetylcholine (100× stock concentration) were added as a control. Using Temo, 49 μl assay buffer is added to each well of the 384-well plate right before assay.
In a 96-well Whatman 2 ml Uniplate, 9 nM Acetylcholine (3×) is pipetted into wells corresponding to the screening compounds, and into control wells. The 30 μM acetylcholine control (3×) is added into control wells, and the 3× agonist plate is transferred into a 384 well plate.
Cells are washed three times with 100 μL of buffer, leaving […] of buffer in each well. Using Multimek, 30 μL of Dye Loading Buffer is added into each well and incubated at 37° C., 5% CO2 for up to one hr.
After 60 min, the cells are washed three times with 100 μL of buffer, leaving 30 μL of buffer in each well. The cell plate, screening plate, and agonist addition plates are placed on the platform in the FLIPR and the door closed. A signal test to check background fluorescence and basal fluorescence signal is performed. Laser intensity is adjusted if necessary. […]
For O=c1c2cn(Cc3ccc(-n4cccn4)cc3)c3cnccc3c-2nn1-c1ccccc1F [Example 4, 2-(2-Fluorophenyl)-5-{[4-(1H-pyrazol-1-yl)phenyl]methyl}-2,5-dihydro-3H-pyrazolo[4,3-c]-1,7-naphthyridin-3-one], the pEC50 was 5.12.
O=c1c2cn(Cc3ccc(-n4cccn4)cc3)c3cccnc3c-2nn1-c1ccccc1F [Example 1, 2-(2-Fluorophenyl)-5-{[4-(1H-pyrazol-1-yl)phenyl]methyl}-2,5-dihydro-3H-pyrazolo[4,3-c]-1,5-naphthyridin-3-one] showed a pEC50 of 6.80.
O=c1c2cn(Cc3ccc(-n4cccn4)cc3)c3ncccc3c-2nn1-c1ccccc1F [Example 2, 2-(2-Fluorophenyl)-5-{[4-(1H-pyrazol-1-yl)phenyl]methyl}-2,5-dihydro-3H-pyrazolo[4,3-c]-1,8-naphthyridin-3-one] was tested, and the pEC50 was 6.50.
Cc1ccccc1-n1nc2c3nccnc3n(Cc3ccc(-n4cccn4)cc3)cc-2c1=O [Example 6, 2-(2-Methylphenyl)-5-{[4-(1H-pyrazol-1-yl)phenyl]methyl}-2,5-dihydro-3H-pyrazolo[3′,4′:4,5]-pyrido[2,3-b]pyrazin-3-one] gave a pEC50 of 6.12.
Work on O=c1c2cn(Cc3ccc(-n4cccn4)cc3)c3c(c-2nn1-c1ccccc1F)CCC3 [Example 8, 2-(2-Fluorophenyl)-5-{[4-(1H-pyrazol-1-yl)phenyl]methyl}-5,6,7,8-tetrahydrocyclopenta[b]pyrazolo[3,4-d]pyridine-3(2H)-one] yielded a pEC50 of 6.11.
With O=c1c2cn(Cc3ccc(-n4cccn4)cc3)c3c(c-2nn1-c1ccccc1F)CCCC3 [Example 9, 2-(2-Fluorophenyl)-5-{[4-(1H-pyrazol-1-yl)phenyl]methyl}-2,5,6,7,8,9-hexahydro-3H-pyrazolo[3,4-d]pyridine-3(2H)-one] the pEC50 was 6.44.
With Cc1ccccc1-n1nc2c3sccc3n(Cc3ccc(-n4cccn4)cc3)cc-2c1=O [Example 13, 2-(2-Methylphenyl)-5-{[4-(1H-pyrazol-1-yl)phenyl]methyl}-2,5-dihydro-3H-pyrazolo[3,4-d]thieno[3,2-b]pyridin-3-one] the pEC50 was 6.97.
O=c1c2cn(Cc3ccc(-n4cccn4)cc3)c3ccsc3c-2nn1-c1ccccc1F [Example 12, 2-(2-Fluorophenyl)-5-{[4-(1H-pyrazol-1-yl)phenyl]methyl}-2,5-dihydro-3H-pyrazolo[4,3-d]thieno[3,2-b]pyridin-3-one] gave a pEC50 of 7.70.
O=c1c2cn(Cc3ccc(-n4cccn4)cc3)c3c(c-2nn1-c1ccccc1F)C(O)CCC3 (racemic) [Example 11, (±)-2-(2-Fluorophenyl)-9-hydroxy-5-{[4-(1H-pyrazol-1-yl)phenyl]methyl}-2,5,6,7,8,9-hexahydro-3H-pyrazolo[4,3-c]quinolin-3-one] showed a pEC50 of 5.89.
In the case of O=c1c2cn(Cc3ccc(-n4cccn4)cc3)c3ccsc3c-2nn1-c1c(Cl)cncc1Cl [Example 15, 2-(3,5-Dichloropyridin-4-yl)-5-{[4-(1H-pyrazol-1-yl)phenyl]methyl}-2,5-dihydro-3H-pyrazolo[3,4-d]thieno[3,2-b]pyridin-3-one], the pEC50 was 7.19.
